Reference: the NIST ThermoML archive (doi:10.1021/je200730m)

Settings: Liquid, Closed cell (Static) method

CCCCCCCCCC(=O)OCC [ethyl decanoate]
Settings	vapor or sublimation pressure [kPa]
303.1 K	0.00446
313.16 K	0.0105
333.23 K	0.0478
343.2 K	0.0952
353.16 K	0.181
363.12 K	0.328
412.15 K	3.65
422.13 K	5.472
432.24 K	8.07
442.23 K	11.55
452.28 K	16.28
462.37 K	22.35

CCCCCCCCCCCCCC(=O)OCC [ethyl tetradecanoate]
Settings	vapor or sublimation pressure [kPa]
333.22 K	0.00147
343.19 K	0.00361
353.15 K	0.00775
363.09 K	0.0163
371.72 K	0.0302
382.03 K	0.0572
391.87 K	0.105
401.89 K	0.187
411.93 K	0.322
421.97 K	0.539
432.22 K	0.887
442.39 K	1.394
452.25 K	2.127
462.3 K	3.2

CCCCCCCCCCCC(=O)OCC [ethyl dodecanoate]
Settings	vapor or sublimation pressure [kPa]
313.1 K	0.00183
351.88 K	0.0346
362.1 K	0.0674
372.12 K	0.124
382.17 K	0.229
392.24 K	0.399
402.2 K	0.669
422.15 K	1.695
432.26 K	2.647
442.27 K	3.986
452.31 K	5.804
462.43 K	8.49

CCCCCCCC(=O)OCC [ethyl octanoate]
Settings	vapor or sublimation pressure [kPa]
273.26 K	0.00219
283.08 K	0.00627
293.05 K	0.0156
303.09 K	0.035
313.2 K	0.0757
323.31 K	0.152
351.9 K	0.869
362.1 K	1.487
372.06 K	2.432
382.13 K	3.872
392.19 K	5.904
402.13 K	8.723
412.13 K	12.67
422.12 K	18.04
432.22 K	25.22
442.26 K	34.49
452.3 K	46.42

CCCCCC(=O)OCC [ethyl hexanoate]
Settings	vapor or sublimation pressure [kPa]
253.41 K	0.00344
263.26 K	0.0106
283.06 K	0.0663
293.05 K	0.144
303.03 K	0.291
313.15 K	0.562
323.18 K	1.018
333.11 K	1.781
343.09 K	2.978
351.97 K	4.553
362.1 K	7.184
372.13 K	10.93
382.15 K	16.07
392.23 K	23.19
402.19 K	32.56
412.21 K	44.9
422.19 K	60.62
432.28 K	80.76
442.29 K	105.57
452.34 K	136.73
462.43 K	174.6
